Laboratory results reported in article PMC12040169 (PLOS Biology, 2025).

Experiment: in vitro
Conditions: human, hela cells, % viability

| Compound | viability at 28.5 h, 10 µM [%] |
| --- | --- |
| COc1ccc(Oc2nccc(-c3ccccc3)c2C#N)cc1 [CBK291158] | 98.7 |
| Cc1cccc(OCCn2cncc2-c2cn(C)nc2C)c1C [CBK281458] | 112 |
| CCN1CCC[C@@H]1CNc1cc(NS(=O)(=O)c2cccs2)cc2ccoc12 [CBK067904C] | 83.3 |
| COc1ccc(S(=O)(=O)N(C)CC(=O)O)cc1C [CBK267176] | 108 |
| NCC1CCCN1C(=O)c1ccc(Oc2cccc(Br)c2)nc1 (stereo not drawn) [CBK304200] | 95.5 |
| CC(C)CNc1n[nH]c(=S)s1 [CBK016865] | 95.9 |
| Cc1ccc(C(NC(=O)CC(C)C)c2ccc3cccnc3c2O)cc1 (stereo not drawn) [CBK293943] | 89.3 |
| COc1ccc(OC)c(NS(=O)(=O)N(C)C)c1 [CBK005362] | 94.1 |
| O=C(NC(=S)Nc1ccc2oc(-c3cccc4ccccc34)nc2c1)c1ccco1 [CBK263691] | 95.5 |
| O=C(c1cccc(F)c1)N1CCCC(c2cc3cccnc3[nH]2)C1 (stereo not drawn) [CBK284939] | 122 |
| C=C(C)CN1CCN(C(=O)c2cc3cccc(OC)c3oc2=O)CC1 [CBK269211] | 59 |
| O=c1[nH]nc2c(Sc3cccc(F)c3)nccn12 [CBK288508] | 90.4 |
| COCC(=O)N1C[C@@H](c2ccc(F)c(F)c2)[C@@]2(CCCC(=O)N2)C1 [CBK283358] | 103 |
| CCc1ccc(-n2cc(-c3ccccn3)nn2)cc1 [CBK113137] | 106 |
| CN(CC(=O)NNC(=O)c1ccc(C(C)(C)C)cc1)S(=O)(=O)c1cc(Cl)ccc1Cl [CBK267376] | 107 |
| Cc1ccc(-n2nnnc2SCC(=O)O)cc1 [CBK287048] | 94.1 |
| CN(C(=O)CN1C2CCC1CC(O)(c1ccco1)C2)C1CCCCC1 (stereo not drawn) [CBK284108] | 102 |
| COc1ccc(C2Oc3cccnc3N(CCCN(C)C)C2=O)cc1 (stereo not drawn) [CBK007694] | 101 |
| COc1cccc(N2CCN(CCCOc3ccc(F)cc3)CC2)n1 [CBK010355F] | 94.6 |
| Cc1nc(C(F)(F)F)ccc1C(=O)NCCn1ccnc1C [CBK281982] | 88.9 |
| COc1ccc(CCNC(=O)N2CCN(c3cc(C(F)(F)F)ccn3)CC2)cc1OC [CBK162330] | 105 |

| Compound | viability at 28.5 h, 10 µM [%] |
| --- | --- |
| O=C(O)C1CNC(=O)N1C(=O)OCc1ccccc1 (stereo not drawn) [CBK057462] | 98.8 |
| O=C(/C=C/c1ccc(Cl)cc1Cl)NCCNc1c(Cl)cccc1[N+](=O)[O-] [CBK264295] | 110 |
| C#CCNC(=O)CC[C@H]1CNC(=O)[C@@H]2[C@@H](CCN2Cc2ccc(O)cc2)N1C [CBK289017] | 94 |
| NNC(=O)Nc1ccc(Cc2ccc(NC(=O)NN)cc2)cc1 [CBK262017] | 88.5 |
| CC(C)CN1CCC[C@H]1c1nc(-c2ccc(-n3ccnc3)nc2)no1 [CBK288894] | 88.5 |
| OC12CCCCC1CN(Cc1nc3ccccc3[nH]1)CC2 (stereo not drawn) [CBK282995] | 93.9 |
| CNC(=O)c1c(C)nc2ccccc2c1SCCC(=O)O [CBK154987T] | 101 |
| CCc1nn(CC(=O)NC2CCCC2)c(=O)c2cc3ccsc3n12 [CBK284134] | 98.4 |
| N#CCn1c(-c2nonc2N)nc2ccccc21 [CBK050974] | 92.3 |
| O=C(COc1ccc(-c2ccccc2)cc1)N/N=C/c1ccncc1 [CBK262210] | 93.2 |
| CN(Cc1ccc(-c2ccc(S(C)(=O)=O)cc2)nc1)C1CCNCC1 [CBK163942] | 99.1 |
| Cc1nnc2n1-c1ccc(Cl)cc1C(c1ccccc1)=NN2CCCC(=O)c1ccc(F)cc1 [CBK016076] | 86.6 |
| COc1ccc(CN2CCCC(c3nc(C)n4ccccc34)C2)cc1 (stereo not drawn) [CBK282984] | 94.6 |
| Nc1cccc(-c2cncc(Nc3ccccc3)n2)c1 [CBK065265] | 96.2 |
| COc1ccc(C(=O)Nc2nnc(-c3ccc(OC)c(OC)c3)o2)cc1OC [CBK287745] | 93.7 |
| COc1cccc(CN(C)CCN(C)C)c1O [CBK261905] | 102 |
| CNC(=O)C1(Cc2ccccc2-c2cccs2)CCN(C(=O)Cc2ccc(C)cc2)CC1 [CBK285697] | 95 |
| O=C(c1nc2ccccc2[nH]1)N1CCc2ccccc2C1 [CBK200341] | 100 |
| Cn1c(/N=C(\C=N\c2cc(=O)n(C)c(=O)n2C)c2ccccc2)cc(=O)n(C)c1=O [CBK303237] | 87.3 |
| O=C(CCC1CCCCC1)N1CCC(c2n[nH]cc2C(=O)N2CCc3ccccc3C2)CC1 [CBK286271] | 95.4 |
| CC(CCc1ccccc1)NC(=O)CC1COc2ccccc2O1 (stereo not drawn) [CBK266203] | 103 |

| Compound | viability at 28.5 h, 10 µM [%] |
| --- | --- |
| CN(C)Cc1ccccc1-n1ncc(CN2CCS(=O)(=O)CC2)n1 [CBK112877] | 107 |
| CCCC/C=C/c1cnc2[nH]c(=O)n(Cc3cccs3)c2n1 [CBK064373] | 83.6 |
| CCN(CC)C(=O)c1sccc1NS(=O)(=O)Cc1ccccc1[N+](=O)[O-] [CBK050396] | 97 |
| Nc1nc(Cn2nc(-c3ccc(F)cc3)oc2=O)nc(Nc2ccc(F)cc2)n1 [CBK296742] | 91.6 |
| Cc1cc(C)n(C(C)CC(=O)N2CCN(C)CC2c2ccccc2)n1 (stereo not drawn) [CBK282014] | 92.2 |
| Nn1c(SCc2ccc(Br)cc2)nnc1-c1ccccn1 [CBK267552] | 89.5 |
| CC(C)c1c(O)c2ccccc2[nH]c1=O [CBK159988] | 89.4 |
| Cc1nnc(Nc2ccc3c(c2)nc2n3CCN(C3CCCCC3)C2)c2ccccc12 [CBK268042] | 90.9 |
| O=C(Cn1cc(Br)ccc1=O)NC1CCN(Cc2ccccc2)CC1 [CBK305671] | 95.6 |
| COc1ccc(N2CC(NC(=O)Nc3ccccn3)CC2=O)cc1 (stereo not drawn) [CBK287642] | 96.9 |
| COCCn1cc(C(=O)N2CCCC2c2cc(C)on2)c2ccccc21 (stereo not drawn) [CBK305289] | 90.4 |
| CN(C(=O)c1ccco1)c1nc2c(s1)CCc1c-2cnn1C [CBK281928] | 81.2 |
| COc1ccc(Cl)cc1C1(CNC(=O)C2CCC(N)C2)CCOCC1 (stereo not drawn) [CBK305523] | 85.9 |
| CCN(Cc1ccccc1)C(=O)Nc1ccccc1 [CBK012816] | 94.9 |
| Cc1n[nH]c(C)c1CCCCCOc1ccccc1F [CBK025736C] | 88.9 |
| O=C1COc2ccccc2C/C=C/CC2(CCCN(C(=O)CN3CCCC3=O)C2)CN1 (stereo not drawn) [CBK292032] | 98.1 |
| Cc1cc(Cl)c(S(=O)(=O)Nc2ccon2)cc1OCC(N)=O [CBK266589] | 99.6 |
| Cc1[nH]c2ccc(F)cc2c1-c1cn2c3c(nnc2n1)CCCC3 [CBK283172] | 92.3 |
| CCC1CCCCN1C(=O)c1cccc(C)n1 (stereo not drawn) [CBK076750] | 92.4 |
| CN1CCC(N(C)C(=O)NCc2cccc3ccccc23)C1 (stereo not drawn) [CBK155999] | 89.2 |
| CC(C)C(=O)Nc1ccc2[nH]cc(C(C(=O)O)N3CCN(c4ccccc4)CC3)c2c1 (stereo not drawn) [CBK286645] | 85.7 |

| Compound | viability at 28.5 h, 10 µM [%] |
| --- | --- |
| O=C(CNC(=O)c1ccccc1)N/N=C/c1ccc(C(=O)O)cc1 [CBK261976] | 102 |
| O=C(CCN1C(=O)c2ccccc2C1=O)NC(=S)Nc1ccccc1 [CBK267595] | 108 |
| CCC(=O)N1CCC(c2cc(-c3cccc(F)c3)n(C)n2)CC1 [CBK282096] | 107 |
| CCCN1CCN(Cc2cccc3c2ccn3S(=O)(=O)c2cccs2)CC1 [CBK116196T] | 92 |
| CCCNC(=O)CN(C)CC(=O)Nc1sc2c(c1C#N)CCC(C)C2 (stereo not drawn) [CBK305845] | 82.5 |
| Cc1nn(-c2ccccc2)c(O)c1Cc1c(Cl)cccc1Cl [CBK067760] | 98.1 |
| NC(=O)CN1CCCC2(CCCCc3ccccc3OCC(=O)NC2)C1 (stereo not drawn) [CBK292058] | 106 |
| CC(C)Cn1cncc1CNC(=O)Nc1ccc2[nH]nnc2c1 [CBK306549] | 91.9 |
| Nc1cc(N)nc(SCc2ccccc2)n1 [CBK261266] | 96.1 |
| O=C(O)CC(C(=O)O)N1C(=O)/C(=C\C(Cl)=C/c2ccc([N+](=O)[O-])cc2)SC1=S (stereo not drawn) [CBK261013] | 99.2 |
| Cc1ccc(S(=O)(=O)CC(=O)N2CCN(C(=O)c3ccco3)CC2)cc1 [CBK144469] | 87.1 |
| O=[N+]([O-])c1ccc(/C=N/CCCN2CCOCC2)cc1 [CBK261058] | 87.5 |
| CCOC(=O)CN1CCC(Oc2nccnc2OCc2cc(C)on2)CC1 [CBK082960T] | 105 |
| CN(CC(=O)Nc1nnc[nH]1)S(=O)(=O)c1ccc(Br)cc1 [CBK268618] | 91.1 |
| Cc1ccc2c(c1)C(=O)CC1(CCN(C(=O)C3CCCC3)CC1)O2 [CBK283718] | 85 |
| Cn1c(CN2CCN(S(=O)(=O)c3ccccc3)CC2)nc2cc([N+](=O)[O-])ccc21 [CBK268321] | 102 |
| CS(=O)(=O)c1ccc(-c2c[nH]c([C@@H]3COCCN3Cc3ccc(C(=O)O)cc3)n2)cc1 [CBK289306] | 97.3 |
| Nc1nc(Cl)c2ccn([C@H]3C[C@@H](O)[C@@H](CO)O3)c2n1 [CBK201309] | 92.4 |
